We go through 24 compounds from patent US20250074891A1 (Anaxis Pharma Pty Ltd., priority 2021, published 2025).

Holding throughout (conditions): Table 35
The target in one assay is RIP1 (Homo sapiens (Human), UniProt Q13546). The assay is described as follows: KINOMEscan binding assay, RIP1.
For another assay, the target named is MLKL (full length) (Homo sapiens (Human), UniProt Q8NB16). Kind of assay: KINOMEscan binding assay, MLKL (full length). As to the method: (§1) Kinase assays. For most assays, kinase-tagged T7 phage strains were grown in parallel in 24-well blocks in an E. coli host derived from the BL21 strain. E. coli were grown to log-phase and infected with T7 phage from a frozen stock (multiplicity of infection=0.4) and incubated with shaking at 32° C. until lysis (90-150 minutes).
Chain of MLKL (full length) (Q8NB16 whole entry): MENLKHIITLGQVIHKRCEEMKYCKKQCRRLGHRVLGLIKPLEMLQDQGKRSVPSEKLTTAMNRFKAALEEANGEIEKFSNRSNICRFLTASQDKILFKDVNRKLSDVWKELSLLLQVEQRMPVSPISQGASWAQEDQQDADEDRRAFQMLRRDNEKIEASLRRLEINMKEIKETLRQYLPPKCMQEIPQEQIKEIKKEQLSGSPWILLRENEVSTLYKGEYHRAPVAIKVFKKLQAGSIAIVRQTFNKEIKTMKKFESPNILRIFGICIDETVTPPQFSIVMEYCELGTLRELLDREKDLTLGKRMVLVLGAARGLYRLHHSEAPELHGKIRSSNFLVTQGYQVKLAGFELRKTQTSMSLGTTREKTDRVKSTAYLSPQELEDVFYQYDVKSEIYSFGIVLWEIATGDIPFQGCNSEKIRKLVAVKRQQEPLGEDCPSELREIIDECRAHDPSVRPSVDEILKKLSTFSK
(§2) The Hill Slope was set to −1.

In a further assay the target is RIP3 (Homo sapiens (Human), UniProt Q9Y572). The assay is described as follows: KINOMEscan binding assay, RIP3. As to the method: as §1, §2
Chain of RIP3 (Q9Y572 whole entry): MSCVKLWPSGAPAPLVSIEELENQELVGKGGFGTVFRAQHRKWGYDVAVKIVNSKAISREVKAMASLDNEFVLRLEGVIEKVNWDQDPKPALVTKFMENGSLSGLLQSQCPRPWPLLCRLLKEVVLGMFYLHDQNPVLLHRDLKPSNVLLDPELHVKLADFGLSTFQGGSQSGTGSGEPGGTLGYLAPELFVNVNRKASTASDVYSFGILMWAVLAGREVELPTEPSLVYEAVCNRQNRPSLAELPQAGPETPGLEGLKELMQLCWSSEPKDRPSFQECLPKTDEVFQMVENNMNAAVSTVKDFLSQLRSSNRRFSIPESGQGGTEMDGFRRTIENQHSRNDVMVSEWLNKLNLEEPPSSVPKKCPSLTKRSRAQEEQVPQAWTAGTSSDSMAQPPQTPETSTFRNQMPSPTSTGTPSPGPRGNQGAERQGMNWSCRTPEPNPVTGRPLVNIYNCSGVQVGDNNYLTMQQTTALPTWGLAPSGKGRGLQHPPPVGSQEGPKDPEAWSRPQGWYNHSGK

Where only a bound is given, the exact number is not on record here.

Chain of RIP1 (Q13546 whole entry): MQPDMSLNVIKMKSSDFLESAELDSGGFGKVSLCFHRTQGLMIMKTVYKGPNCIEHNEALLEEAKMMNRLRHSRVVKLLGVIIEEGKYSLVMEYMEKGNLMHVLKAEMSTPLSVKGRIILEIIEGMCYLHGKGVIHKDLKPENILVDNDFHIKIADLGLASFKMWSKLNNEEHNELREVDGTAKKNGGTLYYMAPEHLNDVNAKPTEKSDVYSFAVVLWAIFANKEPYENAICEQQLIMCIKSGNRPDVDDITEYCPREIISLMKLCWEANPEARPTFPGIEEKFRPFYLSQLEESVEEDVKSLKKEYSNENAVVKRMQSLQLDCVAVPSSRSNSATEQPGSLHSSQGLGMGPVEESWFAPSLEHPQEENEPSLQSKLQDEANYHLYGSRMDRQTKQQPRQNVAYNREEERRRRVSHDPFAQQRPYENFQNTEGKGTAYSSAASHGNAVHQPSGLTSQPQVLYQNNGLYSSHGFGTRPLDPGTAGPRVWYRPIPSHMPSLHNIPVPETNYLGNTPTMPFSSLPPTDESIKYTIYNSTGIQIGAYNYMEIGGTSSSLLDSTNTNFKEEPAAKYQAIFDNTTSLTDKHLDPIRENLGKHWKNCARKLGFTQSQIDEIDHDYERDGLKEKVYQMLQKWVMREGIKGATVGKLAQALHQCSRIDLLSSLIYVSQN

Turning to `NC(=O)c1c(-c2ccc(NS(=O)(=O)CC(F)(F)F)c(OCc3ccc(F)cc3)c2)n[nH]c1Nc1cnccn1` [Compound 170, 3-(3-((4-fluorobenzyl)oxy)-4-((2,2,2-trifluoroethyl)sulfonamido)phenyl)-5-(pyrazin-2-ylamino)-1H-pyrazole-4-carboxamide], the Kd – broadly, the equilibrium constant for the complex coming apart – on RIP1 was above 30 µM; at MLKL (full length) it was below 0.01 µM; on RIP3, above 30 µM.
For the compound `CCS(=O)(=O)Nc1ccc(-c2n[nH]c(Nc3cnccn3)c2C(N)=O)cc1OCc1ccc(F)cc1C` [Compound 171, 3-(4-(ethylsulfonamido)-3-((4-fluoro-2-methylbenzyl)oxy)phenyl)-5-(pyrazin-2-ylamino)-1H-pyrazole-4-carboxamide], the values for the Kd on RIP1, on MLKL (full length) and on RIP3 were above 30 µM, below 0.01 µM and above 30 µM, respectively.
Take `NC(=O)c1c(-c2ccc(NS(=O)(=O)CC(F)(F)F)c(OCc3ccc(F)cc3)c2)n[nH]c1Nc1cccc(C(F)F)n1` [Compound 173, 5-((6-(difluoromethyl)pyridine-2-yl)amino)-3-(3-((4-fluorobenzyl)oxy)-4-((2,2,2-trifluoroethyl)sulfonamido)phenyl)-1H-pyrazole-4-carboxamide]: the Kd on RIP1 is above 30 µM; at MLKL (full length) it was below 0.01 µM; at RIP3, above 30 µM.
In the case of `NC(=O)c1c(-c2ccc(NS(=O)(=O)CC(F)(F)F)c(OCc3ccc(F)c(F)c3)c2)n[nH]c1Nc1cnccn1` [Compound 175, 3-(3-((3,4-difluorobenzyl)oxy)-4-((2,2,2-trifluoroethyl)sulfonamido)phenyl)-5-(pyrazin-2-ylamino)-1H-pyrazole-4-carboxamide], the Kd at RIP1 was above 30 µM; on MLKL (full length), below 0.01 µM; at RIP3, above 30 µM.
On to `NC(=O)c1c(-c2ccc(NS(=O)(=O)CC(F)(F)F)c(OCc3ccc(F)cc3)c2)n[nH]c1Nc1ccc(C(F)(F)F)nc1` [Compound 176, 3-(3-((4-fluorobenzyl)oxy)-4-((2,2,2-trifluoroethyl)sulfonamido)phenyl)-5-((6-(trifluoromethyl)pyridine-3-yl)amino)-1H-pyrazole-4-carboxamide], for which the results for the Kd at RIP1, on MLKL (full length) and on RIP3 were above 30 µM, below 0.01 µM and above 30 µM, respectively.
For `NC(=O)c1c(-c2ccc(NS(=O)(=O)C(F)F)c(Oc3ccc(F)cc3)c2)n[nH]c1Nc1cnccn1` [Compound 177, 3-(4-((difluoromethyl)sulfonamido)-3-(4-fluorophenoxy)phenyl)-5-(pyrazin-2-ylamino)-1H-pyrazole-4-carboxamide], the Kd at RIP1 was above 30 µM; on MLKL (full length), below 0.01 µM; at RIP3 it was above 30 µM.
On to `NC(=O)c1c(-c2ccc(NS(=O)(=O)CC(F)F)c(OCc3ccc(F)cc3)c2)n[nH]c1Nc1cccc(C(F)(F)F)n1` [Compound 178, 3-(4-((2,2-difluoroethyl)sulfonamido)-3-((4-fluorobenzyl)oxy)phenyl)-5-((6-(trifluoromethyl)pyridine-2-yl)amino)-1H-pyrazole-4-carboxamide], for which the Kd at RIP1 is above 30 µM; on MLKL (full length), below 0.01 µM; at RIP3, above 30 µM.
In the case of `CCS(=O)(=O)Nc1ccc(-c2n[nH]c(Nc3cccc(C(F)F)n3)c2C(N)=O)cc1OCc1ccc(F)cc1` [Compound 179, 5-((6-(difluoromethyl)pyridine-2-yl)amino)-3-(4-(ethylsulfonamido)-3-((4-fluorobenzyl)oxy)phenyl)-1H-pyrazole-4-carboxamide], the Kd was above 30 µM on RIP1, below 0.01 µM on MLKL (full length) and above 30 µM on RIP3.
Regarding `NC(=O)c1c(-c2ccc(NS(=O)(=O)CC(F)F)c(OCc3ccc(F)cc3)c2)n[nH]c1Nc1cnccn1` [Compound 180, 3-(4-((2,2-difluoroethyl)sulfonamido)-3-((4-fluorobenzyl)oxy)phenyl)-5-(pyrazin-2-ylamino)-1H-pyrazole-4-carboxamide], the Kd at RIP1 was above 30 µM; at MLKL (full length), below 0.01 µM; at RIP3 it was above 30 µM.
As for `Cc1cnc(Nc2[nH]nc(-c3ccc(NS(=O)(=O)CCC(F)(F)F)c(OCc4ccc(F)cc4)c3)c2C(N)=O)cn1` [Compound 183, 3-(3-((4-fluorobenzyl)oxy)-4-((3,3,3-trifluoropropyl)sulfonamido)phenyl)-5-((5-methylpyrazin-2-yl)amino)-1H-pyrazole-4-carboxamide], the Kd on RIP1 was above 30 µM; at MLKL (full length), below 0.01 µM; at RIP3, above 30 µM.
Consider `NC(=O)c1c(-c2ccc(NS(=O)(=O)CCC(F)(F)F)c(OCc3ccc(F)cc3)c2)n[nH]c1Nc1cnccn1` [Compound 184, 3-(3-((4-fluorobenzyl)oxy)-4-((3,3,3-trifluoropropyl)sulfonamido)phenyl)-5-(pyrazin-2-ylamino)-1H-pyrazole-4-carboxamide], for which the Kd is above 30 µM on RIP1, below 0.01 µM at MLKL (full length) and above 30 µM on RIP3.
`CCS(=O)(=O)Nc1ccc(-c2n[nH]c(Nc3cnccn3)c2C(N)=O)cc1Oc1ccc(Cl)cc1` [Compound 185, 3-(3-(4-chlorophenoxy)-4-(ethylsulfonamido)phenyl)-5-(pyrazin-2-ylamino)-1H-pyrazole-4-carboxamide]: the values for the Kd on RIP1, on MLKL (full length) and on RIP3 were above 30 µM, below 0.01 µM and above 30 µM, respectively.
As for `NC(=O)c1c(-c2ccc(NS(=O)(=O)CC(F)(F)F)c(OCc3ccc(F)cc3)c2)n[nH]c1Nc1ccnc(C(F)(F)F)n1` [Compound 186, 3-(3-((4-fluorobenzyl)oxy)-4-((2,2,2-trifluoroethyl)sulfonamido)phenyl)-5-((2-(trifluoromethyl)pyrimidin-4-yl)amino)-1H-pyrazole-4-carboxamide], the Kd was above 30 µM on RIP1, below 0.01 µM at MLKL (full length) and above 30 µM at RIP3.
Consider `NC(=O)c1c(-c2ccc(NS(=O)(=O)C(F)F)c(OCc3ccc(F)cc3)c2)n[nH]c1Nc1ccc(C(F)(F)F)nc1` [Compound 188, 3-(4-((difluoromethyl)sulfonamido)-3-((4-fluorobenzyl)oxy)phenyl)-5-((6-(trifluoromethyl)pyridine-3-yl)amino)-1H-pyrazole-4-carboxamide], for which the values for the Kd at RIP1, at MLKL (full length) and on RIP3 were above 30 µM, below 0.01 µM and above 30 µM, respectively.
Regarding `COc1cnc(Nc2[nH]nc(-c3ccc(NS(=O)(=O)C(F)F)c(OCc4ccc(Cl)cc4)c3)c2C(N)=O)cn1` [Compound 190, 3-(3-((4-chlorobenzyl)oxy)-4-((difluoromethyl)sulfonamido)phenyl)-5-((5-methoxypyrazin-2-yl)amino)-1H-pyrazole-4-carboxamide], the values for the Kd on RIP1, at MLKL (full length) and at RIP3 were above 30 µM, below 0.01 µM and above 30 µM, respectively.
Take `COc1cnc(Nc2[nH]nc(-c3ccc(NS(=O)(=O)C(F)F)c(OCc4ccc(F)cc4)c3)c2C(N)=O)cn1` [Compound 191, 3-(4-((difluoromethyl)sulfonamido)-3-((4-fluorobenzyl)oxy)phenyl)-5-((5-methoxypyrazin-2-yl)amino)-1H-pyrazole-4-carboxamide]: the values for the Kd on RIP1, on MLKL (full length) and on RIP3 were above 30 µM, below 0.01 µM and above 30 µM, respectively.
In the case of `CCS(=O)(=O)Nc1ccc(-c2n[nH]c(Nc3cnccn3)c2C(N)=O)cc1O[C@H](C)c1ccc(F)cc1` [Compound 193, (R)-3-(4-(ethylsulfonamido)-3-(1-(4-fluorophenyl)ethoxy)phenyl)-5-(pyrazin-2-ylamino)-1H-pyrazole-4-carboxamide], the values for the Kd at RIP1, on MLKL (full length) and at RIP3 were above 30 µM, below 0.01 µM and above 30 µM, respectively.
Consider `CCS(=O)(=O)Nc1ccc(-c2n[nH]c(Nc3ccc(C(F)(F)F)nc3)c2C(N)=O)cc1OCc1ccc(F)cc1` [Compound 194], for which the Kd at RIP1 was above 30 µM; on MLKL (full length), below 0.01 µM; on RIP3 it was above 30 µM.
In the case of `CCS(=O)(=O)Nc1ccc(-c2n[nH]c(Nc3ccnc(C(F)(F)F)n3)c2C(N)=O)cc1OCc1ccc(F)cc1` [Compound 195, 3-(4-(ethylsulfonamido)-3-((4-fluorobenzyl)oxy)phenyl)-5-((2-(trifluoromethyl)pyrimidin-4-yl)amino)-1H-pyrazole-4-carboxamide], the Kd at RIP1 was above 30 µM; on MLKL (full length), below 0.01 µM; on RIP3, above 30 µM.
As for `CCS(=O)(=O)Nc1ccc(-c2n[nH]c(Nc3cnccn3)c2C(N)=O)c(OCc2ccc(Cl)cc2)c1` [Compound 198, 3-(2-((4-chlorobenzyl)oxy)-4-(ethylsulfonamido)phenyl)-5-(pyrazin-2-ylamino)-1H-pyrazole-4-carboxamide], the values for the Kd at RIP1, on MLKL (full length) and at RIP3 were above 30 µM, below 0.01 µM and above 30 µM, respectively.
On to `CCS(=O)(=O)Nc1ccc(-c2n[nH]c(Nc3cnccn3)c2C(N)=O)cc1O[C@@H](C)c1ccc(F)cc1` [Compound 199, (S)-3-(4-(ethylsulfonamido)-3-(1-(4-fluorophenyl)ethoxy)phenyl)-5-(pyrazin-2-ylamino)-1H-pyrazole-4-carboxamide], for which the Kd at RIP1 was above 30 µM; on MLKL (full length), below 0.01 µM; at RIP3 it was above 30 µM.
In the case of `CCS(=O)(=O)Nc1ccc(-c2n[nH]c(Nc3ccccn3)c2C(N)=O)c(OCc2ccc(F)cc2)c1` [Compound 201], the Kd is above 30 µM on RIP1, below 0.01 µM at MLKL (full length) and above 30 µM on RIP3.
As to `NC(=O)c1c(-c2ccc(NS(=O)(=O)C(F)F)c(OCc3ccc(F)cc3)c2)n[nH]c1Nc1cnccn1` [Compound 202, 3-(4-((difluoromethyl)sulfonamido)-3-((4-fluorobenzyl)oxy)phenyl)-5-(pyrazin-2-ylamino)-1H-pyrazole-4-carboxamide], the Kd on RIP1 is above 30 µM; at MLKL (full length), below 0.01 µM; on RIP3, above 30 µM.
For the compound `CCS(=O)(=O)Nc1ccc(-c2n[nH]c(Nc3cnccn3)c2C(N)=O)cc1Oc1cccc(F)c1` [Compound 204, 3-(4-(ethylsulfonamido)-3-(3-fluorophenoxy)phenyl)-5-(pyrazin-2-ylamino)-1H-pyrazole-4-carboxamide], the Kd at RIP1 was above 30 µM; at MLKL (full length), below 0.01 µM; at RIP3, above 30 µM.
